According to US10736910B2, “Treatment of autophagy-based disorders and related pharmaceutical compositions, diagnostic and screening assays and kits” (STC.UNM, priority 2012, dated 2020):
Square brackets hold non-standard residues; d marks the D form. Peptide text beside a SMILES is read from it. Nle = CCCC[C@H](N)C(=O)O

Key:
[1] = system: Atg5fl/fl LysM-Cre− and Cre+ bone marrow-derived macrophages (BMM); assay: IL-1α release (ELISA) from LPS- and IFN-γ-stimulated bone marrow-derived macrophages; assay type: cell-based, murine; conditions: 12 h; for IL-1α secreted: autophagy-competent Atg5fl/fl LysM-Cre− BMM, LPS and IFN-γ stimulated, 50 μg/ml rapamycin, 10 mM 3-MA or 100 nM Bafilomycin A1
Description: FIG. 5. Excess cytokine secretion is a cell-autonomous property of autophagy-deficient macrophages and IL-1α hypersecretion by Atg5^fl/fl LysM-Cre^+ macrophages depends on reactive oxygen intermediates and calpain. (A-C) In vitro cytokine (IL-1α, CXCL1, and IL-12p70) release (ELISA) from LPS- and IFN-γ-stimulated Atg5^fl/fl LysM-Cre^− and Cre^+ bone marrow-derived macrophages (BMM). (D) CXCL1 released from LPS- and IFN-γ-stimulated Atg5^fl/fl LysM-Cre^+ BMM in the absence of presence of IL-1RA ([…]). (E) Fraction of 7-AAD^+ BMM after LPS and IFN-γ stimulation in vitro. (F,G) IL-1α and CXCL1 levels (ELISA) in lung homogenates of uninfected Atg5^fl/fl LysM-Cre^− and Cre^+ mice. (H,I) IL-1α (ELISA) released from LPS- and IFN-γ stimulated Atg5^fl/fl LysM-Cre BMM in the presence of 50 μg/ml rapamycin (Rap), 10 mM 3-MA, or 100 nM Bafilomycin A1 (Baf A1) after 12 h of stimulation. (J) IL-1α secretion during inflammasome activation. Atg5^fl/fl LysM-Cre^− and Cre^+ BMM were pretreated overnight with LPS (100 ng/ml) then stimulated for 1 h in the absence or presence of the inflammasome agonist silica (250 μg/ml) in EBSS. (K) IL-1α secretion in the presence of caspase 1 inhibitor YVAD. Atg5^fl/fl LysM-Cre^− and Cre^+ BMM were pretreated overnight with LPS (100 ng/ml) then stimulated for 1 h in the absence or presence of YVAD (50 μM) during inflammasome activation with silica as in J. (L) Effects of caspase 1 siRNA knockdown (immunoblot, left) on IL-1α release (graph, right) from Atg5^fl/fl LysM-Cre^+ BMM. Graph (center), IL-1α release from LPS-stimulated siRNA-treated Atg5^fl/fl LysM-Cre^+ BMM in full media or EBSS (Starv). Graph (right), same as middle graph in full medium only. Casp 1, caspase 1 siRNA: Scr, scrambled, control siRNA. (M) IL-1α release from LPS- and IFN-γ-stimulated Atg5^fl/fl LysM-Cre^+ BMM knocked down with siRNA for inflammasome components ASC and NLRP3. (N,O) ROS inhibition and IL-1 secretion: IL-1α (N) and IL-1β (0) released (ELISA) from LPS- and IFN-γ-stimulated Atg5^fl/fl LysM-Cre^− and Cre^+ BMM in the absence or presence of ROS antagonist APDC (50 μM) after 12 h of incubation. (P) Calpain and […] hypersecretion phenotype. IL-1β (ELISA) released from LPS- and IFN-γ stimulated Atg5^fl/fl LysM-Cre^− and Cre^+ BMM in the absence or presence of calpain inhibitor ALLN (100 μM) after 12 h of stimulation. Data, mean±SE, *p<0.05, **p<0.01, † p>0.05 (t test; n≥3).
(§1) All cells were pretreated with Stain FcX (anti-CD16/32) (Biolegend) before being stained for. […] Caspase 1 activity was measured by flow cytometry using the FLICA caspase 1 reagent (FAM-YVAD-FMK) (Immunochemistry Technologies). […] Secreted cytokines (IL-1αIL-1β CXCL1, CXCL2 and IL-12p70) were measured by ELISA (R&D Systems). […]

[2] = system: Atg5fl/fl LysM-Cre− and Cre+ bone marrow-derived macrophages (BMM); assay: IL-1β release (ELISA) from LPS- and IFN-γ-stimulated bone marrow-derived macrophages; assay type: cell-based, murine; conditions: APDC 50 μM, 12 h
Description: (§2) FIG. 5. Excess cytokine secretion is a cell-autonomous property of autophagy-deficient macrophages and IL-1α hypersecretion by Atg5^fl/fl LysM-Cre^+ macrophages depends on reactive oxygen intermediates and calpain. (A-C) In vitro cytokine (IL-1α, CXCL1, and IL-12p70) release (ELISA) from LPS- and IFN-γ-stimulated Atg5^fl/fl LysM-Cre^− and Cre^+ bone marrow-derived macrophages (BMM). (D) CXCL1 released from LPS- and IFN-γ-stimulated Atg5^fl/fl LysM-Cre^+ BMM in the absence of presence of IL-1RA ([…]). (E) Fraction of 7-AAD^+ BMM after LPS and IFN-γ stimulation in vitro. (F,G) IL-1α and CXCL1 levels (ELISA) in lung homogenates of uninfected Atg5^fl/fl LysM-Cre^− and Cre^+ mice. (H,I) IL-1α (ELISA) released from LPS- and IFN-γ stimulated Atg5^fl/fl LysM-Cre BMM in the presence of 50 μg/ml rapamycin (Rap), 10 mM 3-MA, or 100 nM Bafilomycin A1 (Baf A1) after 12 h of stimulation. (J) IL-1α secretion during inflammasome activation. […]
FIG. 10. […] IL-1β secretion was examined in autophagy-competent Atg5fl/fl LysM-CreBMM and IL-1α secretion was measured in autophagy-deficient Atg5fl/fl LysM-Cre+ BMM. […]
All cells were pretreated with Stain FcX (anti-CD16/32) (Biolegend) before being stained for. […] Caspase 1 activity was measured by flow cytometry using the FLICA caspase 1 reagent (FAM-YVAD-FMK) (Immunochemistry Technologies). […]

TBK-1 = assay: IL-1β secretion with pharmacological TBK-1 inhibition (preliminary studies); assay type: cell-based; conditions: preliminary studies with TBK-1 inhibitor
BMM = assay: HMGB1 extracellular release from BMM (immunoblot of culture supernatants); assay type: cell-based, murine; conditions: BMM stimulated with nigericin; largely diminished in Atg5-deficient BMM
Description: We tested whether induction of autophagy affected other proteins not connected to proteolytic processing in the inflammasome, such as HMGB1 (high mobility group box 1 protein). HMGB1 is a major pro-inflammatory alarmin or DAMP (damage-associated molecular pattern) normally present in the nucleus (34A). This chromatin-associated nuclear protein (with additional intracellular and extracellular signaling roles), upon exposure to inputs including those that induce autophagy (63A,64A), undergoes a complex set of biochemical and localization changes. In the process, it first translocates from the nucleus into the cytoplasm and then is released from the cytoplasm to act in tissue remodeling signaling (when acting alone) or as an inflammatory mediator (when combined with bacterial agonists or other alarmins such as IL-1β). […] HMGB1, along with additional unconventional substrates, depends on inflammasome for secretion although the protein itself is not subjected to proteolytic processing by caspase 1 (65A-68A).

Atg5fl/fl LysM-Cre+ BMM = assay: CXCL1 release (ELISA) from LPS- and IFN-γ-stimulated Atg5fl/fl LysM-Cre+ BMM; assay type: cell-based, murine; parameters: dose or concentration left out as unconfirmed; conditions: IL-1RA
Description: as §2, §1

naïve CD4 T cells = assay: Ex vivo Th17 polarization of naïve CD4 T cells (intracellular IL-17A, flow cytometry); assay type: cell-based, mice; conditions: 20 ng/ml IL-1α in combination with 5 ng/ml TGF-β and 20 ng/ml IL-6, day 4
Procedure: FIG. 9. T cell activation state and IL-1α role in T cell IL-17 polarization. (A,B) CD44 and CD25 expression on CD4 T cells from lungs of uninfected Atg5fl/fl LysM-Cre and Cre+mice. (C-F) Intracellular IL-17A production (day 4; release blocked with monensin) by naïve CD4 T cells polarized in the presence of cytokine cocktails: 5 ng/ml TGF-β and 20 ng/ml IL-6, plus 20 ng/ml IL-1α or 20 ng/ml IL-1β. Dot plot (panel C), levels of IL-17A in unstimulated cells (starting material). Histograms (D,E), IL-17A in naïve CD4 T cells polarized in the presence of TGF-β, IL-6 and IL-1α (panel D) or TGF-β, IL-6 and IL-1β (panel E). (F) Percent of IL-17A+CD4 T cells under respective polarizing conditions. Data: mean±SE; † p>0.05 (t test; n≥3).
Single cell suspensions from whole lungs isolated from naïve Atg5^fl/fl LysM-Cre^+ and Cre^− mice were cultured in RPMI 10% FBS and Cell Stimulation Cocktail (phorbol 12-myristate 13-acetate and ionomycin plus brefeldin A and monensin; eBioscience) for 4 h and analyzed by flow cytometry. […] After 4 days, cells were stimulated with 1× Cell Stimulation Cocktail in the presence of protein transport inhibitors for 5 hours at 37° C. and analyzed by flow cytometry.

In the case of Cn1cnc(N)c2ncnc1-2 [3MA, 3-methyladenine], the IL-1α secreted [1] is reported as “significantly increased”.

With CCCC[C@@H](C=O)NC(=O)[C@H](CC(C)C)NC(=O)[C@H](CC(C)C)NC(C)=O [ALLN] (Ac-Leu-Leu-[Nle]-aldehyde) the “excess IL-1α production” value ([1]; LPS- and IFN-γ-stimulated Atg5fl/fl LysM-Cre+ BMM, ALLN 100 μM) was “completely inhibited the excess IL-1α production”.

For N[C@@]1(C(=O)O)CN[C@@H](C(=O)O)C1 [APDC, (2R,4R)-4-aminopyrrolidine-2,4-dicarboxylate], the “excessive IL-1α release” value ([1]; LPS- and IFN-γ-stimulated Atg5fl/fl LysM-Cre+ BMM, APDC 50 μM) was “abrogated excessive IL-1α” and the “excessive IL-1β release” value [2] was “inhibited excessive IL-1β release”.

In the case of O=C(NCCCNc1nc(Nc2cccc(NC(=O)N3CCCC3)c2)ncc1I)c1cccs1 [BX795], the IL-1β secretion (TBK-1) is reported as “reduced”.

In the case of CO/C1=C\C(C)=C\[C@@H](C)[C@@H](O)[C@@H](C)C/C(C)=C/C=C/[C@H](OC)[C@@H]([C@@H](C)[C@@H](O)[C@H](C)[C@@]2(O)C[C@@H](O)[C@H](C)[C@@H](C(C)C)O2)OC1=O [bafilomycin A1], the IL-1α secreted [1] is reported as “An effect similar to 3MA”.

With CO[C@@H]1C[C@@H](C[C@H]2CC[C@H](C)[C@H]([C@@H](C)C(=O)O)O2)O[C@]2(O[C@](C)([C@H]3CC[C@@](C)([C@@H]4O[C@@H]([C@H]5O[C@@](O)(CO)[C@H](C)C[C@@H]5C)C[C@@H]4C)O3)C[C@H]2C)[C@@H]1C [nigericin] the “HMGB1 in culture supernatants” value (BMM) was “An HMGB1 band was detected”.

In the case of “IL-1RA: IL-1 receptor antagonist (R&D Systems)”, the CXCL1 levels (Atg5fl/fl LysM-Cre+ BMM) is reported as “lowered CXCL1 levels”.

B1: IL-1α: cytokine (R&D Systems) added at 20 ng/ml for T cell polarization (protein, UniProt P01583 113-271, looked up)
Interleukin-1 alpha: SAPFSFLSNVKYNFMRIIKYEFILNDALNQSIIRANDQYLTAAALHNLDEAVKFDMGAYKSSKDDAKITVILRISKTQLYVTAQDEDQPVLLKEMPEIPKTITGSETNLLFFWETHGTKNYFTSVAHPNLFIATKQDYWVCLAGGPPSITDFQILENQA
With B1 the “Th17 polarization (IL-17A+ CD4 T cells)” value (naïve CD4 T cells) was “showed a capacity to promote Th17 polarization”.
